Reference: US10828317B2, “Method of treating bacterial infections” (priority 2016, dated 2020)
Like-named read-outs stand apart in the source and are kept apart here.

What was measured:
K. pneumoniae EN0145 = assay: MIC, KPC-2; assay type: cell-based
S. aureus V86 = assay: MIC; assay type: cell-based; conditions: Uridine 0 μg/ml
P. aeruginosa EN015 = assay type: cell-based, Pseudomonas aeruginosa; conditions: combination FdUrd+trimethoprim+uridine, Table 8
K. pneumoniae EN0233 = assay: MIC; assay type: cell-based; conditions: combination FdUrd+trimethoprim+uridine, Table 19
E. coli EN013 = assay type: cell-based, Escherichia coli; conditions: combination FdUrd+trimethoprim+uridine, Table 8
E. coli strain no 2 = assay: MIC vs E. coli LMG 15862, penicillin resistant; conditions: Table 26B
P. aeruginosa EN005 = conditions: combination FdUrd+trimethoprim+uridine, Table 8
S. aureus no. 12 = assay: MIC vs S. aureus LMG 10147, MSSA; assay type: cell-based, Staphylococcus aureus; conditions: Uridine 0 μg/ml
E. coli EN0139 = assay: MIC, ESBL (CTX-M-15); assay type: cell-based; conditions: combination FdUrd+trimethoprim+uridine, Table 19
E. coli B EN0458 = assay: MIC; assay type: cell-based, Escherichia coli B
K. pneumoniae EN0436 = assay: MIC, colistinR; assay type: cell-based; conditions: combination FdUrd+trimethoprim+uridine, Table 19
K. pneumoniae EN0437 = assay: MIC, colistinR; assay type: cell-based; conditions: combination FdUrd+trimethoprim+uridine, Table 19
K. pneumoniae EN0401 = assay: MIC, Carbapenemase + ESBL; assay type: cell-based; conditions: combination FdUrd+trimethoprim+uridine, Table 19
S. aureus no. 11 = assay: MIC; assay type: cell-based
E. coli EN0135 = assay: MIC, ESBL (SHV-2a); assay type: cell-based; conditions: combination FdUrd+trimethoprim+uridine, Table 19
S. flexneri APV00906 = assay: microbe, parasite or virus in culture; assay type: cell-based
Source text: (§1) Inhibition of Heliobacter is important in view of increasing resistance and its association to gastric cancer.

S. aureus strain no 13 = assay: MIC vs S. aureus LMG 15975, MRSA; conditions: Uridine 0 μg/ml
K. pneumoniae EN011 = assay type: cell-based, Klebsiella pneumoniae; conditions: combination FdUrd+trimethoprim+uridine, Table 8
E. coli EN012 = assay: MIC, WT; assay type: cell-based, Escherichia coli
K. pneumoniae EN0262 = assay: MIC, ESBL (+), KPC+; assay type: cell-based; conditions: combination FdUrd+trimethoprim+uridine, Table 19 and 21
E. coli EN0138 = assay: MIC, ESBL (CTX-M-9); assay type: cell-based; conditions: combination FdUrd+trimethoprim+uridine, Table 19
K. pneumoniae EN010 = assay: MIC, WT; assay type: cell-based, Klebsiella pneumoniae; conditions: combination FdUrd+trimethoprim+uridine, Table 8
A. baumannii EN017 = assay type: cell-based, Acinetobacter baumannii; conditions: combination FdUrd+trimethoprim+uridine, Table 8
[1] = test system: Helicobacter pylori ATTC43504; assay: MIC; assay type: cell-based; conditions: Table 22A
Source text: as §1

[2] = test system: Helicobacter pylori APV00918; assay: MIC; assay type: cell-based; conditions: combination FdUrd+trimethoprim+uridine, Table 22A
Source text: as §1

S. aureus V308 = assay: MIC; assay type: cell-based
K. pneumoniae EN0143 = assay: MIC, ESBL (SHV-12); assay type: cell-based; conditions: combination FdUrd+trimethoprim+uridine, Table 19
K. oxytoca EN0392 = assay: MIC; assay type: cell-based; conditions: Klebsiella oxytoca
K. pneumoniae EN0142 = assay: MIC, OXA-48, CTX-M-15; assay type: cell-based; conditions: Klebsiella pneumoniae, EN0142, combination didanosine+trimethoprim+uridine, Table 20
[3] = Infusion of 1-12 g/sq. m., Leyva et al, 1984; cited from earlier work
S. typhimurium EN0466 = assay: MIC; assay type: cell-based; conditions: Salmonella enterica
[4] = combination FdUrd+trimethoprim+uridine, Table 8
[5] = Iclaprim 0.008 μg/ml, Uridine 0 μg/ml
[6] = Iclaprim 0.008 μg/ml, Uridine 100 μg/ml
[7] = Iclaprim 0.03 μg/ml, Uridine 0 μg/ml
[8] = Iclaprim […], Uridine 100 μg/ml

Q: With O=c1[nH]c(=O)n([C@H]2C[C@H](O)[C@@H](CO)O2)cc1F [FdUrd, Fluorodeoxyuridine] as the molecule, how does the MIC (K. pneumoniae EN0145; combination FdUrd+trimethoprim+uridine, Table 19) read?
A: >4 µg/mL

Q: What about the “MIC FdUrd” value (S. aureus V86; Iclaprim 0.008 μg/ml) of the same molecule?
A: >4 µg/mL

Q: And the “MIC FdUrd” value (S. aureus V86; Iclaprim 0.03 μg/ml)?
A: >4 µg/mL

Q: And the “MIC FdUrd” value (S. aureus V86; Iclaprim 0.06 μg/ml)?
A: >4 µg/mL

Q: And the “MIC FdUrd” value (S. aureus V86; Iclaprim […])?
A: >4 µg/mL

Q: And the MIC (P. aeruginosa EN015)?
A: 1 µg/mL

Q: And the MIC (K. pneumoniae EN0233)?
A: 0.5 µg/mL

Q: And the MIC (E. coli EN013)?
A: 0.016 µg/mL

Q: And the “MIC FdUrd” value (E. coli strain no 2; Iclaprim 0, Uridine 0 μg/ml)?
A: >16 µg/mL

Q: And the “MIC FdUrd” value (E. coli strain no 2; Iclaprim 0, Uridine 100 μg/ml)?
A: >16 µg/mL

Q: And the “MIC FdUrd” value (E. coli strain no 2; Iclaprim 0, Uridine 300 μg/ml)?
A: >16 µg/mL

Q: And the “MIC FdUrd” value (E. coli strain no 2; Iclaprim 0, Uridine 500 μg/ml)?
A: >16 µg/mL

Q: What about the “MIC FdUrd” value (E. coli strain no 2; Iclaprim 0.1, Uridine 0 μg/ml) of the same molecule?
A: >8 µg/mL

Q: What about the “MIC FdUrd” value (E. coli strain no 2; Iclaprim 0.1, Uridine 100 μg/ml) of the same molecule?
A: >8 µg/mL

Q: And the “MIC FdUrd” value (E. coli strain no 2; Iclaprim 0.2, Uridine 0 μg/ml)?
A: >8 µg/mL

Q: And the MIC (P. aeruginosa EN005)?
A: 0.25 µg/mL

Q: What about the “MIC FdUrd” value (S. aureus no. 12; Iclaprim 0.008 μg/ml) of the same molecule?
A: >4 µg/mL

Q: What about the “MIC FdUrd” value (S. aureus no. 12; Iclaprim 0.03 μg/ml) of the same molecule?
A: >4 µg/mL

Q: And the “MIC FdUrd” value (S. aureus no. 12; Iclaprim […])?
A: >4 µg/mL

Q: And the MIC (E. coli EN0139)?
A: 0.5 µg/mL

Q: And the MIC (E. coli B EN0458; [4])?
A: 0.032 µg/mL

Q: What about the MIC (K. pneumoniae EN0436) of the same molecule?
A: 0.25 µg/mL

Q: And the MIC (K. pneumoniae EN0437)?
A: >4 µg/mL

Q: And the MIC (K. pneumoniae EN0401)?
A: >4 µg/mL

Q: And the “MIC FdUrd” value (S. aureus no. 11; [5])?
A: >4 µg/mL

Q: What about the “MIC FdUrd” value (S. aureus no. 11; [6]) of the same molecule?
A: >4 µg/mL

Q: And the “MIC FdUrd” value (S. aureus no. 11; [7])?
A: >4 µg/mL

Q: What about the “MIC FdUrd” value (S. aureus no. 11; Iclaprim 0.03 μg/ml, Uridine 100 μg/ml) of the same molecule?
A: >4 µg/mL

Q: What about the “MIC FdUrd” value (S. aureus no. 11; Iclaprim […], Uridine 0 μg/ml) of the same molecule?
A: >4 µg/mL

Q: And the “MIC FdUrd” value (S. aureus no. 11; [8])?
A: >4 µg/mL

Q: And the MIC (E. coli EN0135)?
A: 0.25 µg/mL

Q: What about the MIC (S. flexneri APV00906; combination FdUrd+trimethoprim+uridine, Table 22A) of the same molecule?
A: >4 µg/mL

Q: What about the “MIC FdUrd” value (S. aureus strain no 13; Table 26A (isolate not given), Iclaprim 0.015) of the same molecule?
A: >0.5 µg/mL

Q: What about the “MIC FdUrd” value (S. aureus strain no 13; Table 26A (isolate not given), Iclaprim 0.03) of the same molecule?
A: >0.5 µg/mL

Q: What about the “MIC FdUrd” value (S. aureus strain no 13; Table 26A (isolate not given), Iclaprim 0.08) of the same molecule?
A: >0.5 µg/mL

Q: What about the “MIC FdUrd” value (S. aureus strain no 13; Table 30C, Iclaprim 0.008 μg/ml) of the same molecule?
A: >4 µg/mL

Q: And the “MIC FdUrd” value (S. aureus strain no 13; Table 30C, Iclaprim 0.03 μg/ml)?
A: >4 µg/mL

Q: What about the “MIC FdUrd” value (S. aureus strain no 13; Table 30C, Iclaprim […]) of the same molecule?
A: >4 µg/mL

Q: What about the MIC (K. pneumoniae EN011) of the same molecule?
A: 0.064 µg/mL

Q: And the MIC (E. coli EN012; [4])?
A: 0.032 µg/mL

Q: And the MIC (K. pneumoniae EN0262)?
A: 2 µg/mL

Q: What about the MIC (E. coli EN0138) of the same molecule?
A: 0.25 µg/mL

Q: What about the MIC (K. pneumoniae EN010) of the same molecule?
A: 0.5 µg/mL

Q: What about the MIC (A. baumannii EN017) of the same molecule?
A: 0.5 µg/mL

Q: What about the MIC ([1]; combination FdUrd+trimethoprim+uridine) of the same molecule?
A: 0.06 µg/mL

Q: And the MIC [2]?
A: 0.06 µg/mL

Q: What about the “MIC FdUrd” value (S. aureus V308; Iclaprim 0 μg/ml, Uridine 0 μg/ml) of the same molecule?
A: >16 µg/mL

Q: And the “MIC FdUrd” value (S. aureus V308; Iclaprim 0 μg/ml, Uridine 100 μg/ml)?
A: >16 µg/mL

Q: And the “MIC FdUrd” value (S. aureus V308; [5])?
A: >4 µg/mL

Q: What about the “MIC FdUrd” value (S. aureus V308; [6]) of the same molecule?
A: >4 µg/mL

Q: What about the “MIC FdUrd” value (S. aureus V308; [7]) of the same molecule?
A: >4 µg/mL

Q: And the “MIC FdUrd” value (S. aureus V308; Iclaprim 0.06 μg/ml, Uridine 0 μg/ml)?
A: >4 µg/mL

Q: What about the “MIC FdUrd” value (S. aureus V308; Iclaprim […], Uridine 0 μg/ml) of the same molecule?
A: >4 µg/mL

Q: And the “MIC FdUrd” value (S. aureus V308; [8])?
A: >4 µg/mL

Q: And the MIC (K. pneumoniae EN0143)?
A: >4 µg/mL

Q: Which results are given for O=c1ccn([C@@H]2O[C@H](CO)[C@@H](O)[C@H]2O)c(=O)[nH]1 [Uridine, uridine]?
A: MIC (K. pneumoniae EN0145; Klebsiella pneumoniae, EN0145, combination FdUrd+trimethoprim+uridine, Table 19, read-out: MIC): > 400 µg/mL; MIC (K. pneumoniae EN0145; Klebsiella pneumoniae, EN0145, combination didanosine+trimethoprim+uridine, Table 20, read-out: MIC): > 400 µg/mL; MIC (K. oxytoca EN0392; EN0392, Combination 1 AZT+trimethoprim+uridine, Table 16): 6.4 µg/mL; MIC (K. oxytoca EN0392; EN0392, combination AZT+trimethoprim+uridine, Table 6): 16 µg/mL; MIC (K. oxytoca EN0392; EN0392, combination FdUrd+trimethoprim+uridine, Table 8): 13 µg/mL; MIC (E. coli B EN0458; Escherichia coli, BEN0458, combination FdUrd+trimethoprim+uridine, Table 8, read-out: MIC): 3 µg/mL; MIC (E. coli B EN0458; Escherichia coli, BEN0458, combination didanosine+trimethoprim+uridine, Table 10, read-out: MIC): 3 µg/mL; MIC (S. flexneri APV00906; Shigella flexneri, APV00906): > 400 µg/mL; MIC (K. pneumoniae EN0142): > 400 µg/mL; MIC (E. coli EN012; Escherichia coli, EN012, combination FdUrd+trimethoprim+uridine, Table 8, read-out: MIC): 3 µg/mL; MIC (E. coli EN012; Escherichia coli, EN012, combination didanosine+trimethoprim+uridine, Table 10, read-out: MIC): 6 µg/mL; plasma levels [3]: up to 500 μg/ml; MIC (S. typhimurium EN0466; Combination 1 AZT+trimethoprim+uridine, Table 16): 6.4 µg/mL; MIC (S. typhimurium EN0466; combination AZT+trimethoprim+uridine, Table 6): 16 µg/mL; MIC (S. typhimurium EN0466; [4]): 13 µg/mL; MIC ([1]; Helicobacter pylori, ATTC43504, combination AZT+trimethoprim+uridine, read-out: MIC): 13 µg/mL; MIC ([1]; Helicobacter pylori, ATTC43504, combination FdUrd+trimethoprim+uridine, read-out: MIC): 6 µg/mL
